Test results from US8653100B2 (AbbVie Inc., priority 2008, dated 2014).
Where a name gives a salt, the structure may show the parent alone.

Assays:
[1] = molecular target: human GlyT1c transporter (Homo sapiens (Human), UniProt P48067); assay: Radioligand binding assay using recombinant CHO cell membranes expressing human GlyT1; conditions: radioligand [3H]-(R)-NPTS (examples 1-19, 22-52, 54-87), read-out: radioligand binding Kiapp
Method in brief: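 Apparent Ki values were derived by Cheng-Prusoff from one-site IC50 fits of displacement curves. Membranes from recombinant CHO cells (human GlyT1c, 50 μg/ml) were incubated 1 h at room temperature with 0.5 nM [^3H]-(R)-NPTS and test compound (1% DMSO, pH 7.5 buffer), with 10 μM Org24598 for non-specific binding, then filtered and counted.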

[2] = molecular target: human GlyT1c (Homo sapiens (Human), UniProt P48067); assay: [3H]-Glycine uptake into recombinant CHO cells expressing human GlyT1; format: cell-based; conditions: hGlyT1c_5_CHO cells, 200 nM [3H]-glycine
Sequence of human GlyT1c (P48067 whole entry): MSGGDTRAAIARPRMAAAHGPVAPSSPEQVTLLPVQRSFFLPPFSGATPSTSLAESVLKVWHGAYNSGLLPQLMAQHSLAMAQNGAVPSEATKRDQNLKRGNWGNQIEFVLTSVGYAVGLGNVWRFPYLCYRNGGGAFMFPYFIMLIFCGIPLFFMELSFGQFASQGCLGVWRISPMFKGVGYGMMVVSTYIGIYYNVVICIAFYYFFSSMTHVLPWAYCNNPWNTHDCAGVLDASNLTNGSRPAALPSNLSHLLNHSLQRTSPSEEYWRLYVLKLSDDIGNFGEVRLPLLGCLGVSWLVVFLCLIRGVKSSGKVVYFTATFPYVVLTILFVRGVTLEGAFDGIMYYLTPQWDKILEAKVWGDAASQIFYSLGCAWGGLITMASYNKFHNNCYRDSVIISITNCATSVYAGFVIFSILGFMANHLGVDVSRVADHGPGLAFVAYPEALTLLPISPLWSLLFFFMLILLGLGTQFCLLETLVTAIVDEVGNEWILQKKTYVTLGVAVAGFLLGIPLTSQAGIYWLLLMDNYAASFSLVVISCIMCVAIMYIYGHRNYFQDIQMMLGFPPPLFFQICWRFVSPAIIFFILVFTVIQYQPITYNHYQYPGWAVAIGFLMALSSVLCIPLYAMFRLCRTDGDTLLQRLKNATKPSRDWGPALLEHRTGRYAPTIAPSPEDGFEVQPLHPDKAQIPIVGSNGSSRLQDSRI
Method in brief: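 hGlyT1c-expressing CHO cells plated at 20,000 cells/well and cultured 24 h; [3H]-glycine incorporation read continuously by solid-phase scintillation for up to 3 h. IC50 from four-parameter logistic fit using the linear uptake phase between 60 and 120 min.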

Sequence of human GlyT1c transporter (P48067 whole entry): as above

Ki [1] | IC50 [2] | SMILES
≤ 100000 nM | ≤ 10000 nM | O=S(=O)(NCCOc1ccc2c(c1)C(C1(c3ccc(Cl)cc3)CCC1)NCC2)c1ccc(-c2ccon2)s1 (stereo not shown) [Example 22, 5-Isoxazol-3-yl-thiophene-2-sulfonic acid (2-{1-[1-(4-chloro-phenyl)-cyclobutyl]-1,2,3,4-tetrahydro-isoquinolin-7-yloxy}-ethyl)-amide hydrochloride]
≤ 10000 nM | ≤ 1000 nM | N#Cc1ccc(S(=O)(=O)NCCOc2ccc3c(c2)C(C2(c4ccc(Cl)cc4)CCC2)NCC3)cc1 (stereo not shown) [Example 24, N-(2-{1-[1-(4-Chloro-phenyl)-cyclobutyl]-1,2,3,4-tetrahydro-isoquinolin-7-yloxy}-ethyl)-4-cyano-benzenesulfonamide hydrochloride]
≤ 1000 nM | ≤ 1000 nM | O=S(=O)(NCCOc1ccc2c(c1)C(C1(c3ccc(Cl)cc3)CCC1)NCC2)c1ccccc1Cl (stereo not shown) [Example 25, 2-Chloro-N-(2-{1-[1-(4-chloro-phenyl)-cyclobutyl]-1,2,3,4-tetrahydro-isoquinolin-7-yloxy}-ethyl)-benzenesulfonamide hydrochloride]
≤ 10000 nM | ≤ 1000 nM | O=S(=O)(NCCOc1ccc2c(c1)C(C1(c3ccc(Cl)cc3)CCC1)NCC2)c1cccc(Cl)c1 (stereo not shown) [Example 26, 3-Chloro-N-(2-{1-[1-(4-chloro-phenyl)-cyclobutyl]-1,2,3,4-tetrahydro-isoquinolin-7-yloxy}-ethyl)-benzenesulfonamide hydrochloride]
≤ 1000 nM | ≤ 1000 nM | O=S(=O)(NCCOc1ccc2c(c1)C(C1(c3ccc(Cl)cc3)CCC1)NCC2)c1ccc(Cl)cc1 (stereo not shown) [Example 27, 4-Chloro-N-(2-{1-[1-(4-chloro-phenyl)-cyclobutyl]-1,2,3,4-tetrahydro-isoquinolin-7-yloxy}-ethyl)-benzenesulfonamide hydrochloride]
≤ 100 nM | ≤ 100 nM | O=S(=O)(NCCOc1ccc2c(c1)C(C1(c3ccc(Cl)cc3)CCC1)NCC2)C1CC1 (stereo not shown) [Example 28, Cyclopropanesulfonic acid (2-{1-[1-(4-chloro-phenyl)-cyclobutyl]-1,2,3,4-tetrahydro-isoquinolin-7-yloxy}-ethyl)-amide hydrochloride]
≤ 1000 nM | ≤ 1000 nM | O=S(=O)(NCCOc1ccc2c(c1)C(C1(c3ccc(Cl)cc3)CCC1)NCC2)c1ccc(Cl)nc1 (stereo not shown) [Example 29, 6-Chloro-pyridine-3-sulfonic acid (2-{1-[1-(4-chloro-phenyl)-cyclobutyl]-1,2,3,4-tetrahydro-isoquinolin-7-yloxy}-ethyl)-amide hydrochloride]
≤ 10000 nM | ≤ 1000 nM | O=S(=O)(NCCOc1ccc2c(c1)C(C1(c3ccc(Cl)cc3)CCC1)NCC2)c1cccc2cccnc12 (stereo not shown) [Example 30, Quinoline-8-sulfonic acid (2-{1-[1-(4-chloro-phenyl)-cyclobutyl]-1,2,3,4-tetrahydro-isoquinolin-7-yloxy}-ethyl)-amide hydrochloride]
≤ 1000 nM | ≤ 1000 nM | COc1ccc(S(=O)(=O)NCCOc2ccc3c(c2)C(C2(c4ccc(Cl)cc4)CCC2)NCC3)cc1 (stereo not shown) [Example 31, N-(2-{1-[1-(4-Chloro-phenyl)-cyclobutyl]-1,2,3,4-tetrahydro-isoquinolin-7-yloxy}-ethyl)-4-methoxy-benzenesulfonamide hydrochloride]
≤ 10000 nM | ≤ 10000 nM | O=S(=O)(Cc1ccccc1)NCCOc1ccc2c(c1)C(C1(c3ccc(Cl)cc3)CCC1)NCC2 (stereo not shown) [Example 32, N-(2-{1-[1-(4-Chloro-phenyl)-cyclobutyl]-1,2,3,4-tetrahydro-isoquinolin-7-yloxy}-ethyl)-C-phenyl-methanesulfonamide hydrochloride]

SMILES | Ki [1] | IC50 [2]
N#Cc1ccccc1S(=O)(=O)NCCOc1ccc2c(c1)C(C1(c3ccc(Cl)cc3)CCC1)NCC2 (stereo not shown) [Example 23, N-(2-{1-[1-(4-Chloro-phenyl)-cyclobutyl]-1,2,3,4-tetrahydro-isoquinolin-7-yloxy}-ethyl)-2-cyano-benzenesulfonamide hydrochloride] | ≤ 10000 nM | ≤ 10000 nM
